`c1ccc([C@H]2C[C@@H]2Nc2cc(-c3ccco3)nc(-c3nccs3)n2)cc1` (relative stereo) [Example 198, 6-(2-Furyl)-N-[(1S*,2R*)-2-phenylcyclopropyl]-2-(1,3-thiazol-2-yl)pyrimidin-4-amine]: the melting point was in the range of 90 to 91.9 °C. With `Nc1cc(-n2cccn2)nc(-c2ccc(Cl)o2)n1` [Example 50, 2-(5-Chloro-2-furyl)-6-(1H-pyrazol-1-yl)pyrimidin-4-amine] the figure was 209.9 to 211 °C; with `CCC(=O)Nc1cc(-n2cccn2)nc(-c2ccc(Cl)o2)n1` [Example 51, N-[2-(5-Chloro-2-furyl)-6-(1H-pyrazol-1-yl)pyrimidin-4-yl]propanamide], 189.3 to 190.1 °C; with `CCC(=O)Nc1cc(-c2cccnc2)nc(-c2ccco2)n1` [Example 54, N-[2-(2-Furyl)-6-pyridin-3-ylpyrimidin-4-yl]propanamide], 251.8 to 253.2 °C. Under `Nc1cc(-c2cccnc2)nc(-c2ccco2)n1` [Example 55, 2-(2-Furyl)-6-pyridin-3-ylpyrimidin-4-amine] stands 232.7 to 233.1 °C; under `c1coc(-c2nc(NCC3CC3)cc(-n3cccn3)n2)c1` [Example 119, N-(Cyclopropylmethyl)-2-(2-furyl)-6-(1H-pyrazol-1-yl)pyrimidin-4-amine], 100.9 to 101.7 °C. Compound `NCCNc1cc(-n2cccn2)nc(-c2ccco2)n1` [Example 122, N-[2-(2-Furyl)-6-(1H-pyrazol-1-yl)pyrimidin-4-yl]ethane-1,2-diamine] came in with a melting point of 104.1 to 105.1 °C.

Take `c1ccc(CCNc2cc(-n3cccn3)nc(-c3ccco3)n2)nc1` [Example 125, 2-(2-Furyl)-6-(1H-pyrazol-1-yl)-N-[2-(pyridin-2-yl)ethyl]pyrimidin-4-amine]: the melting point fell in the range of 110.2 to 110.9 °C.

Compound `OCCCNc1cc(-n2cccn2)nc(-c2cccs2)n1` [Example 131, 3-{[6-(1H-Pyrazol-1-yl)-2-(2-thienyl)pyrimidin-4-yl]amino}propan-1-ol] yielded a melting point of 129.9 to 130.8 °C. With `NCCNc1cc(-n2cccn2)nc(-c2cccs2)n1` [Example 132, N-(2-Aminoethyl)-N-[6-(1H-pyrazol-1-yl)-2-(2-thienyl)pyrimidin-4-yl]amine] the figure was 146.6 to 147.1 °C; with `COc1ccc(CCNc2cc(-n3cccn3)nc(-c3cccs3)n2)cc1OC` [Example 134, N-[2-(3,4-Dimethoxyphenyl)ethyl]-6-(1H-pyrazol-1-yl)-2-(2-thienyl)pyrimidin-4-amine], 116.2 to 117.3 °C.

`COc1ccc(CCNc2cc(-c3ccco3)nc(-c3nccs3)n2)cc1OC` [Example 196, N-[2-(3,4-Dimethoxyphenyl)ethyl]-6-(2-furyl)-2-(1,3-thiazol-2-yl)pyrimidin-4-amine] displayed a melting point of 83 to 83.8 °C.

Consider `COc1ccc(COC(=O)Nc2cc(-n3cccn3)nc(-c3ccco3)n2)cc1OC` [Example 202, 3,4-Dimethoxybenzyl [2-(2-furyl)-6-(1H-pyrazol-1-yl)pyrimidin-4-yl]carbamate], for which the melting point fell in the range of 147.8 to 148.5 °C.

Usually melting point stands for the temperature of the solid-liquid transition.

The record behind these values is US20080058356A1, “2,6 Bisheteroaryl-4-Aminopyrimidines as Adenosine Receptor Antagonists” (Neurocrine Biosciences, Inc., priority 2003, published 2008).
